Assay results reported in ChEMBL document CHEMBL4177736, “Monoterpene indole alkaloid azine derivatives as MDR reversal agents” (Bioorg Med Chem, 2018).
The source made the active and inactive calls. No cut-off for these calls is given here.

Experiments:
NIH3T3 [1] = assay: Cytotoxicity against mouse NIH/3T3 cells assessed as reduction in cell viability at 20 uM after 72 hrs by MTT assay; assay type: cell-based; settings: nih3t3, 72 h
[2] = Inhibition of P-gp (unknown origin) expressed in mouse NIH/3T3 cells assessed as reduction in rhodamine 123 efflux at 20 uM incubated for 30 mins by flow cytometric analysis relative to control; assay type: cell-based; settings: Homo sapiens
BCRP (ABCG2) = target: T1, BCRP (ABCG2) (Homo sapiens, UniProt Q9UNQ0); assay: Inhibition of BCRP (unknown origin) expressed in HEK293 cells assessed as reduction in mitoxantrone efflux at 20 uM incubated for 30 mins by flow cytometric analysis relative to control; assay type: cell-based; settings: HEK293 cells expressing BCRP, probe mitoxantrone
T1 sequence (Q9UNQ0 whole entry): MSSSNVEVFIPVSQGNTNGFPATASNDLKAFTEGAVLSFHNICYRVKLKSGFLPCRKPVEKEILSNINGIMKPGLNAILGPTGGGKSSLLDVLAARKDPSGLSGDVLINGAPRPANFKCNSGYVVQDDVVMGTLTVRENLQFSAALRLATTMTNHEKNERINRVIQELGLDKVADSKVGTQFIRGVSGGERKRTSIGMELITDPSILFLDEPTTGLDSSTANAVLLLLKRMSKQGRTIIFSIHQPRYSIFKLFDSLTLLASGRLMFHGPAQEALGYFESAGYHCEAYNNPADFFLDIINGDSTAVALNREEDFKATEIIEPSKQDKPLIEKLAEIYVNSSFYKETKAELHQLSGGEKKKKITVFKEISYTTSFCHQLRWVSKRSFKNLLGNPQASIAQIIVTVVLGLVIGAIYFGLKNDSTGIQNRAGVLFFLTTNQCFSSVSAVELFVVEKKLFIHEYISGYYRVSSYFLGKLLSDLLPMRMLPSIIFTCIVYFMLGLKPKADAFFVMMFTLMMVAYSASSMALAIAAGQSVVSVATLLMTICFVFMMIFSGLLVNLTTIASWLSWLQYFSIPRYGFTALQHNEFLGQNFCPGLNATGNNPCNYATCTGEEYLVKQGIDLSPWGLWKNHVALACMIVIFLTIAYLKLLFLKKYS

NIH3T3 [3] = assay: Cytotoxicity against MDR1-expressing mouse NIH/3T3 cells assessed as growth inhibition at 20 uM after 72 hrs by MTT assay; assay type: functional, cell-based
MRP1 [4] = target: T2, MRP1 (Homo sapiens, UniProt P33527); assay: Inhibition of MRP1 (unknown origin) expressed in HEK293FlpIN cells assessed as reduction in calcein-AM efflux at 20 uM incubated for 30 mins by flow cytometric analysis relative to control; assay type: cell-based; settings: HEK293FlpIN cells expressing MRP1, probe calcein-AM
T2 sequence (P33527 whole entry): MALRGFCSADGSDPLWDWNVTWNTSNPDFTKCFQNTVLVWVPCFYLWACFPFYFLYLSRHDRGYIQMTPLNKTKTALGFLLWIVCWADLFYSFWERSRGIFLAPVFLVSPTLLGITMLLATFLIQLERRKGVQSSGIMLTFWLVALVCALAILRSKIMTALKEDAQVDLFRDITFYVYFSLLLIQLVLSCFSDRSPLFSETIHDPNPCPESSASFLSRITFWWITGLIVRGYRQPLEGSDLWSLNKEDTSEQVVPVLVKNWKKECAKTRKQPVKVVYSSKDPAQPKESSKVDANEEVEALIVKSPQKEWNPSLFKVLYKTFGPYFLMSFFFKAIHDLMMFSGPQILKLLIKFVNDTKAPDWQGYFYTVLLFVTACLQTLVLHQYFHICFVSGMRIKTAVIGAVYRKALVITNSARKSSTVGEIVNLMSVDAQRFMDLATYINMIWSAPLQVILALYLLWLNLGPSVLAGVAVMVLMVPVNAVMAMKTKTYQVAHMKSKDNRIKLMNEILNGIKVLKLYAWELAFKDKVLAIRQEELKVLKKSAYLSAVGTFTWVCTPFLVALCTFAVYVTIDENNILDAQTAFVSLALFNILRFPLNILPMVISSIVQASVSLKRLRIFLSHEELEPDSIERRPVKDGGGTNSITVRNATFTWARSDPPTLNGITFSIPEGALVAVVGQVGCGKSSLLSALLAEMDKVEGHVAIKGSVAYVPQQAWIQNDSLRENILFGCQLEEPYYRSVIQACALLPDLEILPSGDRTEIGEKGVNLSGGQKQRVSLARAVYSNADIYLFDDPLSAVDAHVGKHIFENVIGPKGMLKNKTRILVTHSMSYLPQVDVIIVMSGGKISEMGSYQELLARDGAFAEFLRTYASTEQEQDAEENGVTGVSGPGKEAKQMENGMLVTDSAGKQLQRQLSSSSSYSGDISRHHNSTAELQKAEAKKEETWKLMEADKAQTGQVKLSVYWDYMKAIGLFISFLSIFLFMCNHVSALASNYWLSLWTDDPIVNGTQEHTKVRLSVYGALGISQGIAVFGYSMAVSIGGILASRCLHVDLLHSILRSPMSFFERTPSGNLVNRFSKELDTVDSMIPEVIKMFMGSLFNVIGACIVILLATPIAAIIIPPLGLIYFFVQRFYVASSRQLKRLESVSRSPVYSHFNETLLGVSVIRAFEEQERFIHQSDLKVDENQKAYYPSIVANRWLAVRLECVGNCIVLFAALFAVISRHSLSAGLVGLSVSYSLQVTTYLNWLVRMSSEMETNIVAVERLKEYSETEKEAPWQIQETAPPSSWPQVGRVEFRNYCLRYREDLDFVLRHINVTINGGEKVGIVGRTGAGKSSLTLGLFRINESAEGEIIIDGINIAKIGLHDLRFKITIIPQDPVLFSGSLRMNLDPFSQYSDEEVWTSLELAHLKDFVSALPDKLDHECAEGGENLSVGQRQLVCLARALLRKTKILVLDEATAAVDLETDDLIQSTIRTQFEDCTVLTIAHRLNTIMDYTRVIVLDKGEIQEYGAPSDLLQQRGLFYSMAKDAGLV

BHK-21 [5] = assay: Cytotoxicity against wild type BHK21 cells assessed as reduction in cell viability at 20 uM after 72 hrs by MTT assay; assay type: cell-based, Mesocricetus auratus; settings: hamster, bhk-21, 72 h
BHK-21 [6] = assay: Cytotoxicity against MRP1-expressing BHK21 cells assessed as growth inhibition at 20 uM after 72 hrs by MTT assay; assay type: functional; settings: Mesocricetus auratus; for inhibition of growth at 20 µM: BHK-21, 72 h, read-out: GI
BHK-21 [7] = assay: Resistance ratio of EC50 for MRP1-expressing BHK21 cells to EC50 for wild type BHK21 cells; assay type: functional, Mesocricetus auratus
BHK-21 [8] = assay: Cytotoxicity against MRP1-expressing BHK21 cells assessed as cell death after 72 hrs by MTT assay; assay type: functional, cell-based; settings: Mesocricetus auratus, BHK-21, 72 h
MRP1 [9] = target: T2, MRP1; assay: Inhibition of MRP1 (unknown origin) expressed in BHK21 cells assessed as GSH efflux at 20 uM incubated for 3 hrs measured every 30 secs for 2 mins by GSH reductase enzyme based assay (reference value: 100%); assay type: cell-based; settings: BHK21 cells expressing MRP1, probe GSH

CC[C@@H]1CN(C)[C@H]2Cc3c([nH]c4ccccc34)/C(=N/N=C\C3CCCC3)C[C@H]1[C@H]2C(=O)OC
Activity (NIH3T3 [1]): Non-Toxic
inhibition [2]: 2.7%
inhibition at 0.5 h, 20 µM (BCRP (ABCG2)): -2.3%
growth inhibition (GI) (NIH3T3 [3]): Active
inhibition at 0.5 h, 20 µM (MRP1 [4]): 19.1%

CC[C@H]1CN(C)[C@H]2Cc3c([nH]c4ccccc34)/C(=N/N=C\C=C\c3ccccc3)C[C@H]1[C@H]2C(=O)OC
Activity (NIH3T3 [1]): Non-Toxic
inhibition [2]: 45.8%
inhibition at 0.5 h, 20 µM (BCRP (ABCG2)): -0.3%
Activity (BHK-21 [5]): Non-Toxic
growth inhibition (GI) (NIH3T3 [3]): Active
inhibition of growth at 20 µM (BHK-21 [6]): 90 to 98%
inhibition at 0.5 h, 20 µM (MRP1 [4]): 20.3%

CC[C@@H]1CN(C)[C@H]2Cc3c([nH]c4ccccc34)/C(=N/N=C\c3ccccc3[N+](=O)[O-])C[C@H]1[C@H]2C(=O)OC
Activity (NIH3T3 [1]): Non-Toxic
inhibition [2]: 42.9%
inhibition at 0.5 h, 20 µM (BCRP (ABCG2)): -0.1%
Activity (BHK-21 [5]): Non-Toxic
growth inhibition (GI) (NIH3T3 [3]): Active
inhibition of growth at 20 µM (BHK-21 [6]): 90 to 98%
inhibition at 0.5 h, 20 µM (MRP1 [4]): 14.6%

CC[C@H]1CN(C)[C@H]2Cc3c([nH]c4ccccc34)/C(=N/N=C\C3CCCC3)C[C@H]1[C@H]2C(=O)OC
Activity (NIH3T3 [1]): Non-Toxic
inhibition [2]: 30.3%
inhibition at 0.5 h, 20 µM (BCRP (ABCG2)): 0.8%
growth inhibition (GI) (NIH3T3 [3]): Active
inhibition at 0.5 h, 20 µM (MRP1 [4]): 35.5%

CC[C@H]1CN(C)[C@H]2Cc3c([nH]c4ccccc34)/C(=N/N=C\c3ccccc3[N+](=O)[O-])C[C@H]1[C@H]2C(=O)OC
Activity (NIH3T3 [1]): Non-Toxic
inhibition [2]: 57.4%
inhibition at 0.5 h, 20 µM (BCRP (ABCG2)): 4.5%
growth inhibition (GI) (NIH3T3 [3]): Active
inhibition at 0.5 h, 20 µM (MRP1 [4]): 29.5%

CCC(/C=N\N=C1/C[C@@H]2[C@H](CC)CN(C)[C@@H](Cc3c1[nH]c1ccccc31)[C@@H]2C(=O)OC)CC
Ratio EC50 (BHK-21 [7]): 0.81
Activity (NIH3T3 [1]): Non-Toxic
inhibition [2]: 2.8%
inhibition at 0.5 h, 20 µM (BCRP (ABCG2)): 0.9%
Activity (BHK-21 [5]): Non-Toxic
growth inhibition (GI) (NIH3T3 [3]): Active
EC50 (BHK-21 [8]): 27.5 µM
growth inhibition (GI) (BHK-21 [6]): Active
inhibition at 3 h, 20 µM (MRP1 [9]): 63 to 75%
inhibition at 0.5 h, 20 µM (MRP1 [4]): 26.4%

CC[C@@H]1CN(C)[C@H]2Cc3c([nH]c4ccccc34)/C(=N/N=C\c3ccc[nH]3)C[C@H]1[C@H]2C(=O)OC
Activity (NIH3T3 [1]): Non-Toxic
inhibition [2]: 4.5%
inhibition at 0.5 h, 20 µM (BCRP (ABCG2)): 3.7%
growth inhibition (GI) (NIH3T3 [3]): Active
inhibition at 0.5 h, 20 µM (MRP1 [4]): 15.2%

CC[C@@H]1CN(C)[C@H]2Cc3c([nH]c4ccccc34)/C(=N/N=C\c3ccc([N+](=O)[O-])cc3)C[C@H]1[C@H]2C(=O)OC
Activity (NIH3T3 [1]): Non-Toxic
inhibition [2]: 14.7%
inhibition at 0.5 h, 20 µM (BCRP (ABCG2)): 2.9%
Activity (BHK-21 [5]): Non-Toxic
growth inhibition (GI) (NIH3T3 [3]): Active
inhibition of growth at 20 µM (BHK-21 [6]): > 90%
inhibition at 0.5 h, 20 µM (MRP1 [4]): 23.4%

CC[C@@H]1CN(C)[C@H]2Cc3c([nH]c4ccccc34)/C(=N/N=C\C(C)(C)C)C[C@H]1[C@H]2C(=O)OC
Ratio EC50 (BHK-21 [7]): 0.83
Activity (NIH3T3 [1]): Non-Toxic
inhibition [2]: 3.1%
inhibition at 0.5 h, 20 µM (BCRP (ABCG2)): 1.3%
Activity (BHK-21 [5]): Non-Toxic
growth inhibition (GI) (NIH3T3 [3]): Active
EC50 (BHK-21 [8]): 57 µM
growth inhibition (GI) (BHK-21 [6]): Active
inhibition at 3 h, 20 µM (MRP1 [9]): 63 to 75%
inhibition at 0.5 h, 20 µM (MRP1 [4]): 2.5%

CC[C@H]1CN(C)[C@H]2Cc3c([nH]c4ccccc34)/C(=N/N=C\c3cccc(Br)c3)C[C@H]1[C@H]2C(=O)OC
Activity (NIH3T3 [1]): Non-Toxic
inhibition [2]: 28.6%
inhibition at 0.5 h, 20 µM (BCRP (ABCG2)): -3.1%
Activity (BHK-21 [5]): Non-Toxic
growth inhibition (GI) (NIH3T3 [3]): Active
inhibition of growth at 20 µM (BHK-21 [6]): 90 to 98%
inhibition at 0.5 h, 20 µM (MRP1 [4]): 12.8%

CCC(/C=N\N=C1/C[C@@H]2[C@@H](CC)CN(C)[C@@H](Cc3c1[nH]c1ccccc31)[C@@H]2C(=O)OC)CC
Ratio EC50 (BHK-21 [7]): 0.63
Activity (NIH3T3 [1]): Non-Toxic
inhibition [2]: 26.5%
inhibition at 0.5 h, 20 µM (BCRP (ABCG2)): 8.2%
Activity (BHK-21 [5]): Non-Toxic
growth inhibition (GI) (NIH3T3 [3]): Active
EC50 (BHK-21 [8]): 18 µM
growth inhibition (GI) (BHK-21 [6]): Active
inhibition at 3 h, 20 µM (MRP1 [9]): 63 to 75%
inhibition at 0.5 h, 20 µM (MRP1 [4]): 30.3%

CC[C@H]1CN(C)[C@H]2Cc3c([nH]c4ccccc34)/C(=N/N=C\c3cccc(Cl)c3)C[C@H]1[C@H]2C(=O)OC
Activity (NIH3T3 [1]): Non-Toxic
inhibition [2]: 21.4%
inhibition at 0.5 h, 20 µM (BCRP (ABCG2)): -2.4%
Activity (BHK-21 [5]): Non-Toxic
growth inhibition (GI) (NIH3T3 [3]): Active
inhibition of growth at 20 µM (BHK-21 [6]): 90 to 98%
inhibition at 0.5 h, 20 µM (MRP1 [4]): 13.6%

CC[C@H]1CN(C)[C@H]2Cc3c([nH]c4ccccc34)/C(=N/N=C\C(C)(C)C)C[C@H]1[C@H]2C(=O)OC
Ratio EC50 (BHK-21 [7]): 0.74
Activity (NIH3T3 [1]): Non-Toxic
inhibition [2]: 10.3%
inhibition at 0.5 h, 20 µM (BCRP (ABCG2)): 2.4%
Activity (BHK-21 [5]): Non-Toxic
growth inhibition (GI) (NIH3T3 [3]): Active
EC50 (BHK-21 [8]): 32 µM
growth inhibition (GI) (BHK-21 [6]): Active
inhibition at 3 h, 20 µM (MRP1 [9]): 63 to 75%
inhibition at 0.5 h, 20 µM (MRP1 [4]): 15.9%

CC[C@@H]1CN(C)[C@H]2Cc3c([nH]c4ccccc34)/C(=N/N=C\c3cccc(Cl)c3)C[C@H]1[C@H]2C(=O)OC
Activity (NIH3T3 [1]): Non-Toxic
inhibition [2]: 20.2%
inhibition at 0.5 h, 20 µM (BCRP (ABCG2)): -1.3%
Activity (BHK-21 [5]): Non-Toxic
growth inhibition (GI) (NIH3T3 [3]): Active
inhibition of growth at 20 µM (BHK-21 [6]): 90 to 98%
inhibition at 0.5 h, 20 µM (MRP1 [4]): 10.8%

CC[C@H]1CN(C)[C@H]2Cc3c([nH]c4ccccc34)/C(=N/N=C\c3ccc([N+](=O)[O-])cc3)C[C@H]1[C@H]2C(=O)OC
Activity (NIH3T3 [1]): Non-Toxic
inhibition [2]: 7.5%
inhibition at 0.5 h, 20 µM (BCRP (ABCG2)): 2.2%
Activity (BHK-21 [5]): Non-Toxic
growth inhibition (GI) (NIH3T3 [3]): Active
inhibition of growth at 20 µM (BHK-21 [6]): 90 to 98%
inhibition at 0.5 h, 20 µM (MRP1 [4]): 47.5%

CC[C@H]1CN(C)[C@H]2Cc3c([nH]c4ccccc34)/C(=N/N=C\c3ccc[nH]3)C[C@H]1[C@H]2C(=O)OC
Activity (NIH3T3 [1]): Non-Toxic
inhibition [2]: 27.6%
inhibition at 0.5 h, 20 µM (BCRP (ABCG2)): 13.5%
Activity (BHK-21 [5]): Non-Toxic
growth inhibition (GI) (NIH3T3 [3]): Active
inhibition of growth at 20 µM (BHK-21 [6]): > 70%
inhibition at 3 h, 20 µM (MRP1 [9]): 63 to 75%
inhibition at 0.5 h, 20 µM (MRP1 [4]): 56%
